Measured values as given in PubChem BioAssay (NCI).
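Dose response: 5 concentrations. Exposure: 48 h. Format: 96-well plates. Endpoint: linear interpolation; highest concentration if not reached. TGI is the concentration that stops growth completely.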

Key:
Test in all cases: inhibition of tumour cell growth, NCI panel, 48 h
[1] = system: LOX IMVI melanoma
[2] = system: HOP-62 NSCLC
[3] = system: SF-295 CNS
[4] = system: TK-10 renal
[5] = system: UACC-62 melanoma
[6] = system: OVCAR-4 ovarian
[7] = system: HCC-2998 colon
[8] = system: SF-268 CNS
[9] = system: BT-549 breast
[10] = system: SN12C renal
[11] = system: MDA-MB-231 breast
[12] = system: NCI/ADR-RES ovarian
[13] = system: HCT-15 colon
[14] = system: A498 renal
[15] = system: MCF7 breast

SMILES | TGI [1] [µM] | TGI [2] [µM] | TGI [3] [µM] | TGI [4] [µM] | TGI [5] [µM] | TGI [6] [µM] | TGI [7] [µM] | TGI [8] [µM] | TGI [9] [µM] | TGI [10] [µM] | TGI [11] [µM] | TGI [12] [µM] | TGI [13] [µM] | TGI [14] [µM] | TGI [15] [µM]
CCOc1nc2sc3c(c2c(=O)n1CCSSCCn1c(OCC)nc2sc4c(c2c1=O)CCCC4)CCCC3 | > 100 | > 100 | > 100 | > 100 | > 100 | > 100 | > 100 | > 100 | > 100 | > 100 | > 100 | > 100 | > 100 | > 100 | > 100
COc1cc(OC)nc(-n2c(N)c(C(=O)O)c3ccc([N+](=O)[O-])cc3c2=O)n1 | > 100 | > 100 | > 100 |  | > 100 | > 100 | > 100 | > 100 | > 100 | > 100 | > 100 | > 100 | > 100 | > 100 | > 100
NC(=O)NC(=O)c1cccc(NC(=O)CCl)c1 | 2.17 | 4.71 | 7.71 | 6.76 | 2.63 | 25.7 | 1.81 | 8.29 | 9.03 | 4.8 | 8.38 | 12 | 9.73 | 6.39 | 9.32
COc1nc2c(c(=O)[nH]1)N=C(c1ccc(Cl)cc1)CC(c1ccccc1)N2 (stereo not given) | 57.1 | > 100 | 70.7 |  | 46.6 | 57.4 | > 100 |  | > 100 | 47.1 | 50.8 | 75.4 | 64.6 | > 100 | > 100
C[C@]12CC[C@H](O)CC1=CC[C@@H]1[C@@H]2CC[C@]2(C)NC(=O)/C(=C\c3ccccc3)C[C@@H]12 | 42.5 | 29 | 33.2 | 83.2 | 38.6 | 60.8 | 30.7 | 30.7 | 32.7 | 66 | 38.9 | 53 | 37.8 | 29.2 | 47.3
N#Cc1c(N)c2c(c(-c3ccccc3)c1-c1ccccc1)C(=O)N(O)C2=O | > 100 |  | > 100 | > 100 | > 100 | > 100 | > 100 | > 100 | > 100 | > 100 | > 100 | > 100 | > 100 | > 100 | > 100
COc1cc(/C=N/n2c(C)n[nH]c2=O)cc(OC)c1OC |  | > 100 | > 100 |  | > 100 | > 100 | > 100 | > 100 | > 100 | > 100 | > 100 | > 100 | > 100 | > 100 | > 100
O=C1NC(N2CCCCC2)=N/C1=C\c1ccco1 | > 100 | > 100 | > 100 | > 100 | > 100 | > 100 | > 100 | > 100 | > 100 | > 100 | > 100 | > 100 | > 100 |  | > 100
CC12CCC(=O)[C@@]1(C)CCCC2O (stereo not given in full) | > 100 | > 100 | > 100 | > 100 | > 100 | > 100 | > 100 | > 100 | > 100 | > 100 | > 100 | > 100 | > 100 |  | > 100
Cc1ccc(S(=O)(=O)NNC(=O)Nc2ccc([N+](=O)[O-])cc2)cc1 | > 100 | 95.4 | > 100 | > 100 | 98 | 89.4 | > 100 | > 100 | > 100 | > 100 | > 100 | > 100 | > 100 | > 100 | > 100
COc1cc2c(cc1O)C(=O)O[C@@H]1CC=C3CCN(C)[C@H]3[C@H]21 |  | > 25 | > 25 | > 25 | > 25 | > 25 | > 25 | > 25 | > 25 | > 25 | > 25 | > 25 | > 25 | > 25 | > 25
COC(=O)c1cc2c(cc1C(=O)OC)[C@@]1(C)CCCC(C)(C)C1CC2 (stereo not given in full) | 36 | 61.6 | 37 | 39 | 32.5 | > 100 | 34.4 | 31.2 | 85.9 | 35.2 | 41.8 | 40.8 | 35.3 | 32.4 | 32.7
CCCC(C(=O)Nc1cccc2[nH]cnc12)C(=O)OCC (stereo not given) | > 100 | > 100 | > 100 | > 100 | > 100 | > 100 | > 100 | > 100 | > 100 | > 100 | > 100 | > 100 | > 100 | > 100 | > 100
CCN1C/C(=C\c2ccc(Cl)cc2)c2[nH]c(=O)c(C#N)c(-c3ccc(Cl)cc3)c2C1 | > 100 | > 100 |  | > 100 | > 100 | > 100 | > 100 | > 100 | > 100 | > 100 | > 100 | > 100 | > 100 | > 100 | > 100
CCOC(=O)c1nc2cc(F)cc(F)c2[nH]c1=O | > 100 | > 100 | > 100 | > 100 | > 100 | > 100 | > 100 | > 100 | > 100 | > 100 | > 100 | > 100 | > 100 | > 100 | > 100
